This note sets out measurements from publication PMC7045694 (ACS Nano, 2020).

This test addresses T1, LBP (leucine-binding protein) (Escherichia coli, UniProt P04816).
T1 sequence (P04816 24-369): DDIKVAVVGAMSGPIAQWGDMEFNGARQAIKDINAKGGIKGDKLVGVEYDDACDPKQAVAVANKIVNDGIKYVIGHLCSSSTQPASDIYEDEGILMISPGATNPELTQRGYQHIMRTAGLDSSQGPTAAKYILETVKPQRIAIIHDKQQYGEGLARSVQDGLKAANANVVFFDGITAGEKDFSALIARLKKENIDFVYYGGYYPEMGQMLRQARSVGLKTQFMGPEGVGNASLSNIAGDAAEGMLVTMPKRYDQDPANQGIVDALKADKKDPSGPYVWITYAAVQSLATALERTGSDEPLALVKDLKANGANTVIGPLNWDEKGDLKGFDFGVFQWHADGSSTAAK

Structures are written as SMILES.

In the case of `CC(C)C[C@H](N)C(=O)O` [leucine], the Kd came to 86 ± 19 nM.

A word on the Kd: it is the free concentration of one partner at which half of the binding sites on the other are occupied at equilibrium, for simple one-to-one binding.
